Assay results from patent US12186302B2, “Dipeptidyl peptidase-IV inhibitor and food with function claims” (TOYOTA JIDOSHA KABUSHIKI KAISHA, priority 2020, dated 2025).

What was measured:
[1] = target: T1, DPP-IV (Homo sapiens, UniProt P27487); details: background art, JP Patent Publication (Kokai) No. 2018-118939 A; cited from earlier work
[2] = target: T1, DPP-IV; experiment: DPP (IV) Inhibitor Screening Assay Kit (Cayman Chemical), fluorescence; assay type: biochemical; details: for DPP-IV inhibitory activity (inhibition rate, FIG. 1): comparison of various catechins, 37° C., 30 minutes
Description: In this Example, various catechins including a methylated catechin were used to examine their DPP-IV inhibitory activity. Regarding the DPP-IV inhibitory activity, a commercially available DPP (IV) Inhibitor Screening Assay Kit (manufactured by Cayman Chemical) was used. Catechins tested in this Example were epicatechin-3-O-gallate (ECG), epicatechin (EC), epigallocatechin(EGC), (−)-epigallocatechin gallate (EGCG), and (−)-epigallocatechin 3-(3″-O-methyl)gallate (EGCG3″Me). These catechins were purchased from Nagara Science Co., Ltd. In addition, caffeine was purchased from Sigma-Aldrich, and L-theanine was purchased from FUJIFILM Wako Pure Chemical Corporation for testing.
In the experiment, first, a sample (5 μL), buffer (15 μL), DPP-IV (5 μL), and a substrate (25 μL) were added to a 96-well plate and incubated at 37° C. for 30 minutes. Then, the fluorescence intensity was measured by using a fluorometer (Envision 2104 Multilaber Reader, manufactured by Perkin Elmer) (excitation wavelength: 355 nm; fluorescence wavelength: 450 nm).
Next, the fluorescence intensity measured with the addition of ultrapure water (5 μL), buffer (20 μL), and a substrate (25 μL) was subtracted as a background from the fluorescence intensity of each sample. The fluorescence intensity measured with the addition of ultrapure water (5 μL), buffer (15 μL), DPP-IV (5 μL), and a substrate (25 μL) was defined as 100% initial activity.
The inhibition rate was calculated by subtracting the fluorescence intensity of the sample from the fluorescence intensity of 100% initial activity, then dividing the difference by the fluorescence intensity of 100% initial activity, and finally multiplying the quotient by 100. As a positive control, sitagliptin included in the kit was used.
Specifically, in the experiment described above, the concentration of EGCG3″Me was set to 1 μM, 5 μM, 10 μM, 50 μM, 100 μM or 200 μM, and the DPP-IV inhibitory activity was measured using the DPP (IV) Inhibitor Screening Assay Kit.

T1 sequence (P27487 whole entry): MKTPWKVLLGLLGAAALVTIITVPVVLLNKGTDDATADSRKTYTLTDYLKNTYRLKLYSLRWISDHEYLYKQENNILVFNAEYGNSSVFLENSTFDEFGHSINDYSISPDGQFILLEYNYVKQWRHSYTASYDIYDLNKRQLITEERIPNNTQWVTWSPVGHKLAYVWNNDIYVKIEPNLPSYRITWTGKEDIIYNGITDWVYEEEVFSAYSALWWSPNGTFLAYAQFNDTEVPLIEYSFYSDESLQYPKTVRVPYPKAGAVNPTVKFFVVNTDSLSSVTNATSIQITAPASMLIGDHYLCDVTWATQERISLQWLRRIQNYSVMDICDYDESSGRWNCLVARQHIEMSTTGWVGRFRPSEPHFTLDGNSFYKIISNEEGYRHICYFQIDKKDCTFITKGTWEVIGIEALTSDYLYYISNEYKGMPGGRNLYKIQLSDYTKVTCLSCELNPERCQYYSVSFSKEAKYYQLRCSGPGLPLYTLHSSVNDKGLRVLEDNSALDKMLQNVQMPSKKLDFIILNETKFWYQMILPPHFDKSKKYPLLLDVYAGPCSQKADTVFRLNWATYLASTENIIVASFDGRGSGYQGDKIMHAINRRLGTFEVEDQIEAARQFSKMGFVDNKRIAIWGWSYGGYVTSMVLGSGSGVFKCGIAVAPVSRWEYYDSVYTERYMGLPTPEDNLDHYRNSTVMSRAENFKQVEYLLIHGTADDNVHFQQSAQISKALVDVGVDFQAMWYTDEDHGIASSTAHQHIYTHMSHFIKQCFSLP

Compound	DPP-IV inhibitory effect [1]	DPP-IV inhibitory activity (inhibition rate, FIG. 1) [2]	relationship between concentration and DPP-IV inhibitory activity (FIG. 2) ([2]; 1 μM, 5 μM, 10 μM, 50 μM, 100 μM or 200 μM)	DPP-IV inhibitory activity (FIG. 2) ([2]; when concentration exceeds 50 μM)
catechin gallate [Cg]	have the DPP-IV inhibitory effect			
O=C(O[C@@H]1Cc2c(O)cc(O)cc2O[C@@H]1c1ccc(O)c(O)c1)c1cc(O)c(O)c(O)c1 [ECg, epicatechin gallate]	have the DPP-IV inhibitory effect			
(−)-epigallocatechin gallate [EGCG]	have the DPP-IV inhibitory effect	excellent DPP-IV inhibitory activity		
O=C(O[C@@H]1Cc2c(O)cc(O)cc2O[C@H]1c1cc(O)c(O)c(O)c1)c1cc(O)c(O)c(O)c1 [GCg, gallocatechin gallate]	have the DPP-IV inhibitory effect			
Oc1cc(O)c2c(c1)O[C@H](c1cc(O)c(O)c(O)c1)[C@@H](O)C2 [GC, gallocatechin]	have the DPP-IV inhibitory effect			
Oc1cc(O)c2c(c1)O[C@H](c1cc(O)c(O)c(O)c1)[C@H](O)C2 [EGC, epigallocatechin]	have the DPP-IV inhibitory effect			
epigallocatechin-3-O-(3-O-methyl)gallate [EGCG3″Me]		particularly excellent DPP-IV inhibitory activity	tends to increase as the concentration increases	extremely excellent DPP-IV inhibitory activity
